From PubChem BioAssay AID1918995 (Molecular Pharmacology Branch, DTP, NCI, 2023)

Tested on: 324938-238-R-J1-PDC complex spheroid growth, % test/control
Test: Anticancer human tumor 324938-238-R-J1-PDC patient-derived bladder carcinoma cell line growth inhibition [AhR]
Conditions: for IC50: curve of first compound; for viability, T/C: stronger effect = lower value
Outline: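 Spheroids combined tumor cells with HUVEC endothelial cells and human MSCs as stroma. AhR antagonists were paired with standard or investigational drugs, each dosed in half-log steps down from near clinical Cmax, or from 10 microM where Cmax was unknown.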

[1] = second compound 0.1 µM, first compound 0.0316 µM
[2] = second compound 0.1 µM, first compound 0.1 µM
[3] = second compound 0.1 µM, first compound 0.316 µM
[4] = second compound 0.1 µM, first compound 1 µM
[5] = second compound 0.1 µM, first compound 3.16 µM
[6] = second compound 0.1 µM, first compound 10 µM
[7] = second compound 0.316 µM, first compound 0.0316 µM
[8] = second compound 0.316 µM, first compound 0.1 µM
[9] = second compound 0.316 µM, first compound 0.316 µM
[10] = second compound 0.316 µM, first compound 1 µM
[11] = second compound 0.316 µM, first compound 3.16 µM
[12] = second compound 0.316 µM, first compound 10 µM
[13] = second compound 1 µM, first compound 0.0316 µM
[14] = second compound 1 µM, first compound 0.1 µM
[15] = second compound 1 µM, first compound 0.316 µM
[16] = second compound 1 µM, first compound 1 µM
[17] = second compound 1 µM, first compound 3.16 µM
[18] = second compound 1 µM, first compound 10 µM
[19] = second compound 3.16 µM, first compound 0.0316 µM
[20] = second compound 3.16 µM, first compound 0.1 µM
[21] = second compound 3.16 µM, first compound 0.316 µM
[22] = second compound 3.16 µM, first compound 1 µM
[23] = second compound 3.16 µM, first compound 3.16 µM
[24] = second compound 3.16 µM, first compound 10 µM
[25] = second compound 10 µM, first compound 0.0316 µM
[26] = second compound 10 µM, first compound 0.1 µM
[27] = second compound 10 µM, first compound 0.316 µM
[28] = second compound 10 µM, first compound 1 µM
[29] = second compound 10 µM, first compound 3.16 µM
[30] = second compound 10 µM, first compound 10 µM
[31] = second compound 0.1 µM, first compound 0.00316 µM
[32] = second compound 0.1 µM, first compound 0.01 µM
[33] = second compound 0.316 µM, first compound 0.00316 µM
[34] = second compound 0.316 µM, first compound 0.01 µM
[35] = second compound 1 µM, first compound 0.00316 µM
[36] = second compound 1 µM, first compound 0.01 µM
[37] = second compound 3.16 µM, first compound 0.00316 µM
[38] = second compound 3.16 µM, first compound 0.01 µM
[39] = second compound 10 µM, first compound 0.00316 µM
[40] = second compound 10 µM, first compound 0.01 µM
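Note: spheroids exposed to agents for seven days before viability read.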

In the case of CC(C)c1c(-c2ccccc2)nc2c(C#N)c[nH]n2c1=O + Cc1ccccc1N=Nc1ccc(NC(=O)c2ccnn2C)c(C)c1, the IC50 (second compound 0.1 µM) is reported as greater than 10000 nM, the IC50 (second compound 0.316 µM) is reported as greater than 10000 nM and the IC50 (second compound 1 µM) is reported as greater than 10000 nM. For the same compound, the IC50 (second compound 3.16 µM) was greater than 10000 nM, the IC50 (second compound 10 µM) was greater than 10000 nM and the viability, T/C [1] was 101%. It also gave a viability, T/C [2] of 91.3%, a viability, T/C [3] of 95.5% and a viability, T/C [4] of 83.9%. For the same compound, the viability, T/C [5] was 92.1%, the viability, T/C [6] was 73.9% and the viability, T/C [7] was 87.3%. For the same compound, the viability, T/C [8] was 92.9%, the viability, T/C [9] was 90.7% and the viability, T/C [10] was 81.6%. For the same compound, the viability, T/C [11] was 75.3%, the viability, T/C [12] was 68% and the viability, T/C [13] was 80.1%. For the same compound, the viability, T/C [14] was 91.8%, the viability, T/C [15] was 76% and the viability, T/C [16] was 80.5%. The viability, T/C [17] was 68.3%, the viability, T/C [18] was 65.8% and the viability, T/C [19] was 80.1%. It also gave a viability, T/C [20] of 81.4%, a viability, T/C [21] of 64.9% and a viability, T/C [22] of 67.5%. For the same compound, the viability, T/C [23] was 65.7%, the viability, T/C [24] was 56% and the viability, T/C [25] was 70.8%. The viability, T/C [26] was 75.2%, the viability, T/C [27] was 79.4% and the viability, T/C [28] was 65.1%. For the same compound, the viability, T/C [29] was 54.4% and the viability, T/C [30] was 61%.
In the case of CC1COCCN1c1cc(-c2ccnn2C)c2ccnc(-c3ccn[nH]3)c2n1 (stereo not given) + Cc1ccccc1N=Nc1ccc(NC(=O)c2ccnn2C)c(C)c1, the IC50 (second compound 0.1 µM) is reported as 277 nM, the IC50 (second compound 0.316 µM) is reported as 379 nM and the IC50 (second compound 1 µM) is reported as 245 nM. The IC50 (second compound 3.16 µM) was 309 nM, the IC50 (second compound 10 µM) was 324 nM and the viability, T/C [31] was 102%. For the same compound, the viability, T/C [32] was 104%, the viability, T/C [1] was 102% and the viability, T/C [2] was 74.7%. For the same compound, the viability, T/C [3] was 48.8%, the viability, T/C [4] was 32.7% and the viability, T/C [33] was 104%. The viability, T/C [34] was 90.8%, the viability, T/C [7] was 88.8% and the viability, T/C [8] was 71.5%. The viability, T/C [9] was 53.6%, the viability, T/C [10] was 30.4% and the viability, T/C [35] was 95%. For the same compound, the viability, T/C [36] was 95.4%, the viability, T/C [13] was 87.6% and the viability, T/C [14] was 65.8%. It also gave a viability, T/C [15] of 46.6%, a viability, T/C [16] of 31.5% and a viability, T/C [37] of 78.8%. The viability, T/C [38] was 88.3%, the viability, T/C [19] was 73.8% and the viability, T/C [20] was 67.5%. For the same compound, the viability, T/C [21] was 49.8%, the viability, T/C [22] was 31.6% and the viability, T/C [39] was 74.3%. The viability, T/C [40] was 81.2%, the viability, T/C [25] was 71% and the viability, T/C [26] was 64.4%. For the same compound, the viability, T/C [27] was 50.8% and the viability, T/C [28] was 35%.
COc1ccc([C@@H](O)c2cc(-c3ncnc4cc(N5CCOCC5)ccc34)c(F)cc2Cl)nn1 + Cc1ccccc1N=Nc1ccc(NC(=O)c2ccnn2C)c(C)c1 showed an IC50 (second compound 0.1 µM) greater than 10000 nM, an IC50 (second compound 0.316 µM) greater than 10000 nM and an IC50 (second compound 1 µM) greater than 10000 nM. The IC50 (second compound 3.16 µM) was 9010 nM, the IC50 (second compound 10 µM) was 7490 nM and the viability, T/C [1] was 109%. For the same compound, the viability, T/C [2] was 110%, the viability, T/C [3] was 98.5% and the viability, T/C [4] was 96.8%. The viability, T/C [5] was 80.7%, the viability, T/C [6] was 65.2% and the viability, T/C [7] was 94.3%. The viability, T/C [8] was 99.9%, the viability, T/C [9] was 89.8% and the viability, T/C [10] was 83.4%. The viability, T/C [11] was 74.9%, the viability, T/C [12] was 58.6% and the viability, T/C [13] was 100%. It also gave a viability, T/C [14] of 87.6%, a viability, T/C [15] of 93% and a viability, T/C [16] of 84.1%. The viability, T/C [17] was 72.2%, the viability, T/C [18] was 55.4% and the viability, T/C [19] was 83.5%. For the same compound, the viability, T/C [20] was 83.5%, the viability, T/C [21] was 75.7% and the viability, T/C [22] was 65.1%. It also gave a viability, T/C [23] of 57.4%, a viability, T/C [24] of 48.8% and a viability, T/C [25] of 72.7%. It also gave a viability, T/C [26] of 81.1%, a viability, T/C [27] of 72.7% and a viability, T/C [28] of 66.6%. For the same compound, the viability, T/C [29] was 59.2% and the viability, T/C [30] was 47%.
In the case of COc1cccc2c1C(=O)c1c(O)c3c(c(O)c1C2=O)CC(O)(C(=O)CO)CC3OC1CC(N)C(O)C(C)O1 (stereo not given) + Cc1cncc(-c2nc(NCCc3c[nH]c4ccccc34)c3ncn(C(C)C)c3n2)c1, the IC50 (second compound 0.1 µM) is reported as 336 nM, the IC50 (second compound 0.316 µM) is reported as 367 nM and the IC50 (second compound 1 µM) is reported as 291 nM. For the same compound, the IC50 (second compound 3.16 µM) was 181 nM, the IC50 (second compound 10 µM) was less than 31.6 nM and the viability, T/C [1] was 84.2%. For the same compound, the viability, T/C [2] was 95.7%, the viability, T/C [3] was 52.8% and the viability, T/C [4] was 0.98%. It also gave a viability, T/C [5] of 0.76%, a viability, T/C [6] of 0.41% and a viability, T/C [7] of 65.7%. The viability, T/C [8] was 94.2%, the viability, T/C [9] was 57.3% and the viability, T/C [10] was 0.94%. The viability, T/C [11] was 0.57%, the viability, T/C [12] was 0.38% and the viability, T/C [13] was 90.7%. The viability, T/C [14] was 102%, the viability, T/C [15] was 46.3% and the viability, T/C [16] was 0.36%. For the same compound, the viability, T/C [17] was 1.27%, the viability, T/C [18] was 0.47% and the viability, T/C [19] was 81.8%. The viability, T/C [20] was 62.1%, the viability, T/C [21] was 38.9% and the viability, T/C [22] was 0.31%. For the same compound, the viability, T/C [23] was 1.98%, the viability, T/C [24] was 0.43% and the viability, T/C [25] was 4.55%. For the same compound, the viability, T/C [26] was 12.7%, the viability, T/C [27] was 1.27% and the viability, T/C [28] was 0.29%. For the same compound, the viability, T/C [29] was 0.45% and the viability, T/C [30] was 0.62%.
For Nc1ncn(C2CC(O)C(CO)O2)c(=O)n1 (stereo not given) + Cc1cncc(-c2nc(NCCc3c[nH]c4ccccc34)c3ncn(C(C)C)c3n2)c1, the IC50 (second compound 0.1 µM) was greater than 1000 nM, the IC50 (second compound 0.316 µM) was greater than 1000 nM and the IC50 (second compound 1 µM) was greater than 1000 nM. For the same compound, the IC50 (second compound 3.16 µM) was greater than 1000 nM, the IC50 (second compound 10 µM) was less than 3.16 nM and the viability, T/C [31] was 120%. For the same compound, the viability, T/C [32] was 86.4%, the viability, T/C [1] was 101% and the viability, T/C [2] was 85.2%. For the same compound, the viability, T/C [3] was 128%, the viability, T/C [4] was 103% and the viability, T/C [33] was 111%. The viability, T/C [34] was 103%, the viability, T/C [7] was 135% and the viability, T/C [8] was 92.9%. The viability, T/C [9] was 80.8%, the viability, T/C [10] was 161% and the viability, T/C [35] was 93.4%. The viability, T/C [36] was 107%, the viability, T/C [13] was 127% and the viability, T/C [14] was 125%. It also gave a viability, T/C [15] of 84.8%, a viability, T/C [16] of 98.2% and a viability, T/C [37] of 83.5%. It also gave a viability, T/C [38] of 76.6%, a viability, T/C [19] of 104% and a viability, T/C [20] of 76.9%. The viability, T/C [21] was 100%, the viability, T/C [22] was 112% and the viability, T/C [39] was 4.98%. For the same compound, the viability, T/C [40] was 1.77%, the viability, T/C [25] was 6.15% and the viability, T/C [26] was 3.98%. For the same compound, the viability, T/C [27] was 4.54% and the viability, T/C [28] was 7.74%.
